Test [1] is described as follows: ADAM10 protease inhibitors, dose response, selectivity assay for ADAM17 exosite inhibitor project, biochemical, FRET peptide substrate, recombinant human ADAM10 (AID 743259).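 Note: ADAM10 enzyme cleaving a FRET peptide substrate.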
The target of test [2] is Disintegrin and metalloproteinase domain-containing protein 17 (Homo sapiens, UniProt P78536). The test can be described thus: exosite inhibitors of ADAM17, dose response, biochemical (AID 743260).
The next test has as its target Prothrombin (Homo sapiens, UniProt P00734). The experiment in a line: Thrombin 1536 HTS Dose Response Confirmation. [Related pubchem assays: 1046 (Thrombin 1536 HTS; hits were confirmed in this assay)]. It is filed as functional.
A further test relates to H9c2. The test can be described thus: cells. It is filed as functional, cell-based. Conditions: Rattus norvegicus, H9c2, Myocardium.
A short description of test [3]: LGR2 antagonists, dose response, cell-based, HEK293, CRE-luciferase reporter, cherry pick, set 2 (AID 743343).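 Note: transfected cells were stimulated with diluted bursicon conditioned medium after compound addition.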 It is filed as functional. On the technique in general: Reporter assays use an easily measured gene product as a stand-in for the process of interest.
A short description of test [4]: MC4R antagonists, dose response, counter-screen for LGR2 antagonist project, cell-based, plate reader, cherry pick (AID 743444).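 Note: transfected HEK 293 cells stimulated with alpha-MSH peptide; potency of inhibitors of the alpha-MSH evoked signal.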 It is filed as functional. A general note: The purpose of a counterscreen is to sort out artefacts and off-target activity.
Test [5] can be described thus: A549 cell cytotoxicity, dose response, cytotoxicity control, plate reader, cherry-pick, antagonist series (AID 743412). The test is classed as functional, cell-based.
Test [6] is described as follows: Counterscreen for inhibitors of Trypanosoma brucei methionyl tRNA synthetase (MetRS): Luminescence-based cell-based high throughput dose response assay to identify compounds that are cytotoxic to Jurkat human T lymphocyte cells. The test is classed as functional.
Test [7] addresses T1, Methionyl-tRNA synthetase, putative (Trypanosoma brucei brucei, UniProt Q38C91).
T1 sequence (Q38C91 whole entry): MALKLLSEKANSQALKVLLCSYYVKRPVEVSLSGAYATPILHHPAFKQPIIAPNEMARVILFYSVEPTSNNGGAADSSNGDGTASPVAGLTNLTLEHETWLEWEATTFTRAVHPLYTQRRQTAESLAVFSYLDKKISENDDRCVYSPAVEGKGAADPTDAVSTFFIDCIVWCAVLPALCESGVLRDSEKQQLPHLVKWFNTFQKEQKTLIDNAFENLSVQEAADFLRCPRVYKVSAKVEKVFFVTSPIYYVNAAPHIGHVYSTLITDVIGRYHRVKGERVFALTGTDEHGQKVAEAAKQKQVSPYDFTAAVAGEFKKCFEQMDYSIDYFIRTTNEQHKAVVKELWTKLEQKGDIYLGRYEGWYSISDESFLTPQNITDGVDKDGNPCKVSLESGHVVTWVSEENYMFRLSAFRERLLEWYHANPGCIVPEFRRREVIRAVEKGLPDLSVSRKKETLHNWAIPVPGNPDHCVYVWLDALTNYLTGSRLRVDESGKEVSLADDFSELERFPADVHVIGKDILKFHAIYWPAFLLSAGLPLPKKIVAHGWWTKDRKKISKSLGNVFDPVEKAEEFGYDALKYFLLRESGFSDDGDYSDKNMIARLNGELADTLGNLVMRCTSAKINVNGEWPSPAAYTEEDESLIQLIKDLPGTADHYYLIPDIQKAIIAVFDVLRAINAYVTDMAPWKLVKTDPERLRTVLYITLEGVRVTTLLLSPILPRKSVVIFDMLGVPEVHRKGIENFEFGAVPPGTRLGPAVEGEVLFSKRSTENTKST
It is filed as functional, Trypanosoma brucei brucei strain 927/4 GUTat10.1.

The target in test [8] is T1, Methionyl-tRNA synthetase, putative. The test is classed as functional, Trypanosoma brucei brucei strain 927/4 GUTat10.1. This is another data set of the same source.
In test [9] the target is Delta-type opioid receptor (Homo sapiens, UniProt P41143). The test can be described thus: Counterscreen for agonists of heterodimerization of the mu 1 (OPRM1) and delta 1 (OPRD1) opioid receptors: Luminescence-based cell-based high throughput dose response assay to identify agonists of OPRD1 homodimerization. [Related pubchem assays (depositor defined):AID504326, AID504355, AID504692, AID504904, AID504905]. It is filed as functional.

The target in test [10] is T2, Short transient receptor potential channel 4 (Mus musculus, UniProt Q9QUQ5).
T2 sequence (Q9QUQ5 whole entry): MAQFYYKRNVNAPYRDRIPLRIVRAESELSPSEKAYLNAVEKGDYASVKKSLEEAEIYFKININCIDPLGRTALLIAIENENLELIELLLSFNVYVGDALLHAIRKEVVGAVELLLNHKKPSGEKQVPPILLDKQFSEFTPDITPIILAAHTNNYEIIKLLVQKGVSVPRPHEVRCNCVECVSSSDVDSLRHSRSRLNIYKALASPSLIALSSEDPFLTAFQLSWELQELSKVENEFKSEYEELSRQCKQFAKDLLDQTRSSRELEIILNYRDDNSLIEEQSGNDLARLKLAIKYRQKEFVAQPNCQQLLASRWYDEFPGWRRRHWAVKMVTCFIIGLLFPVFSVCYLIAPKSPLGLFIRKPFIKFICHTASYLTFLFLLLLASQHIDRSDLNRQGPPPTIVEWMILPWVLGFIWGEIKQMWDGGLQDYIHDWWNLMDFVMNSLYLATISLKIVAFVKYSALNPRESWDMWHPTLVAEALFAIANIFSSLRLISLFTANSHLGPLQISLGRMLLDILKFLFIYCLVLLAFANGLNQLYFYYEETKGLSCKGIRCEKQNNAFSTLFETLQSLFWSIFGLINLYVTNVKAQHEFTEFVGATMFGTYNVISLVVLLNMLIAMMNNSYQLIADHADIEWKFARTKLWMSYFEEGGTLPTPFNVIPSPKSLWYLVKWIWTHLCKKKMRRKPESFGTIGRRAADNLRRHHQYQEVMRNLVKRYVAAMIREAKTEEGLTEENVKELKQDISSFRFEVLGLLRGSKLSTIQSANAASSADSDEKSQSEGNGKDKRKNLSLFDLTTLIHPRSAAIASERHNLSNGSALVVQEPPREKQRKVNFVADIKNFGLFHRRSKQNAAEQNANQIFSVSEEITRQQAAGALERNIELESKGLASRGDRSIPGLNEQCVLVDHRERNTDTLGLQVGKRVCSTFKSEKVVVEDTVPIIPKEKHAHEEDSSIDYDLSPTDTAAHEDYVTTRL
The test can be described thus: mouse TRPC4 channel activators, dose response, cell-based, HEK293 TRPC4/mu-opioid, Fluo-4 calcium (AID 434937). The test is classed as functional.

Test [11] deals with 5-hydroxytryptamine receptor 5A (Homo sapiens, UniProt P47898). The test can be described thus: Counterscreen for agonists of OPRM1-OPRD1 heterodimerization: luminescence-based cell-based high throughput dose response assay to identify agonists of 5-hydroxytryptamine (serotonin) 5A receptor (HTR5A). [Related pubchem assays (depositor defined):AID504326, AID504355, AID504692, AID504904, AID504905]. The test is classed as functional.

Another test addresses Mu-type opioid receptor (Homo sapiens, UniProt P35372). The experiment in a line: Counterscreen for agonists of heterodimerization of the mu 1 (OPRM1) and delta 1 (OPRD1) opioid receptors: Luminescence-based cell-based high throughput dose response assay to identify agonists of OPRM1 homodimerization. It is filed as functional.
Test [12] deals with T3, Low molecular weight phosphotyrosine protein phosphatase (Homo sapiens, UniProt P24666).
T3 sequence (P24666 whole entry): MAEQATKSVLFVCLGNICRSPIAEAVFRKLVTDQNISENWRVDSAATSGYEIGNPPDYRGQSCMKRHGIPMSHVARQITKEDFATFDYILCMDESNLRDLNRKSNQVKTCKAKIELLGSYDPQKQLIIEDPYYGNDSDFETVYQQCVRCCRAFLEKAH
The test is classed as functional. Conditions: read-out: IC50_Mean.

The nature of test [13]: THP-1 cell cytotoxicity, dose response, cytotoxicity control for Vif-APOBEC3G degradation inhibitor project, THP-1 cells (AID 1117359). The test is classed as functional. Conditions: Human immunodeficiency virus 1, THP-1.
The nature of test [14]: NIH:OVCAR-3 ovarian cancer cell cytotoxicity, dose response, PAX8 inhibitor project, plate reader, dry powder samples (AID 743044). The test is classed as functional, cell-based.
The target in a further test is Paired box protein Pax-8 (Homo sapiens, UniProt Q06710). The test can be described thus: inhibitors of PAX8-driven TPO luciferase reporter, dose response, RMG-I cells, cherry-pick (AID 687027).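 Note: luciferase reporter driven by Pax8 target thyroperoxidase promoter measured by SteadyGlo luminescence.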 It is filed as functional, cell-based.
Test [15] in a line: cytotoxicity in OVCAR8 ovarian cancer cells, dose response, PAX8 project, cell-based, plate reader, dry powder samples (AID 743197). It is filed as functional. Conditions: OVCAR-8.
The target in test [16] is Induced myeloid leukemia cell differentiation protein Mcl-1 (Homo sapiens, UniProt Q07820). It is filed as functional.
Test [17] can be described thus: P. falciparum Dd2 growth inhibitors, dose response, SYBR Green, cherry-picked samples (AID 1159567). The test is classed as functional, cell-based.
Test [18] in a line: P. falciparum Dd2 growth inhibitors, dose response, SYBR Green, dry powder samples (AID 1159566).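 Note: potency for growth inhibition with lower SYBR green DNA signal.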 It is filed as functional, cell-based.
Test [19] in a line: HepG2 cell cytotoxicity, dose response, cytotoxicity control, plate reader, dry powder samples (AID 1159569).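 Note: inhibitor potency with signal falling toward the positive control level.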 It is filed as functional, cell-based.
Test [20] in a line: P. falciparum 3D7-ScDHODH growth inhibitors, dose response, SYBR Green, dry powder samples (AID 1159570).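 Note: parasite growth measured after 72 hours of compound exposure.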 It is filed as functional, cell-based.
The nature of test [21]: P. falciparum ATP4 D1247Y mutant growth inhibitors, dose response, NITD609-resistant line, SYBR Green, dry powder (AID 1159571).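 Note: parasites synchronized at ring stage by sorbitol before testing.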 The test is classed as functional, cell-based.

What is called AC50 is the concentration at which the activity in the assay is half-maximal. The term EC50 denotes the concentration giving half of the maximal effect. As usually defined, the CC50 is the concentration giving 50% cytotoxicity.

SMILES strings stand for the structures. The source made the active and inactive calls.
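Throughout, for IC50 Mean: Dose-response confirmation assay measuring inhibition of LMPTP enzyme activity by fluorescence intensity read-out.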

Delta-type opioid receptor, sequence (P41143 whole entry): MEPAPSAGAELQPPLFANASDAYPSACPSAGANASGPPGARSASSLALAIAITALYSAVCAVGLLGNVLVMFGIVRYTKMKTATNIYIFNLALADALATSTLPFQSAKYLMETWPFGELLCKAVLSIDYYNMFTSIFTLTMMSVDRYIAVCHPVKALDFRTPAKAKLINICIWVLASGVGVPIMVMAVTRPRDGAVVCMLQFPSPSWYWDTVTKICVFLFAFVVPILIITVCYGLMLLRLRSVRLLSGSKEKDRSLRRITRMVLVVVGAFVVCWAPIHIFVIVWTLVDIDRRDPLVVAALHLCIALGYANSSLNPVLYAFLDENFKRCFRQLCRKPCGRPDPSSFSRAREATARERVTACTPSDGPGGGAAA
Disintegrin and metalloproteinase domain-containing protein 17, sequence (P78536 whole entry, the tested form may be a part): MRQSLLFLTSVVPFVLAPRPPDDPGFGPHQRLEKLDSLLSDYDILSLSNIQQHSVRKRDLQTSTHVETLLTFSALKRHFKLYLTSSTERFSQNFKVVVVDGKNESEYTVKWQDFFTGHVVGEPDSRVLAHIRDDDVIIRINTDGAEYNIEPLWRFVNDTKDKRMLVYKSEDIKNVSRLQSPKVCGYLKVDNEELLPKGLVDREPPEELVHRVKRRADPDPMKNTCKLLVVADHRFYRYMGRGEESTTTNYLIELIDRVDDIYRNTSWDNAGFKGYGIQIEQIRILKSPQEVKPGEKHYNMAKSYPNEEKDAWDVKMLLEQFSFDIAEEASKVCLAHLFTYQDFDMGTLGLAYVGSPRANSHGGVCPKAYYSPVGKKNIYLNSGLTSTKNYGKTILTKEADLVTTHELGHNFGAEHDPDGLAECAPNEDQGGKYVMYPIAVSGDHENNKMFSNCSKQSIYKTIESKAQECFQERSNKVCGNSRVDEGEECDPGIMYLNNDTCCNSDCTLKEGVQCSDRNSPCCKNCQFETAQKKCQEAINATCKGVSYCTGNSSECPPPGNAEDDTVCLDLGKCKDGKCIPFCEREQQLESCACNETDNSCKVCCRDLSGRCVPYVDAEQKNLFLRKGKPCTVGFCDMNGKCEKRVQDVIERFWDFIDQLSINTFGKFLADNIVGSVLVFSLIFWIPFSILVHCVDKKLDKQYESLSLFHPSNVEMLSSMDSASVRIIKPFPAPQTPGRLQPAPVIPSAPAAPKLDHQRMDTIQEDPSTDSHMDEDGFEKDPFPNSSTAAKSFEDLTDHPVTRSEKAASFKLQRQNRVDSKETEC
5-hydroxytryptamine receptor 5A, sequence (P47898 whole entry): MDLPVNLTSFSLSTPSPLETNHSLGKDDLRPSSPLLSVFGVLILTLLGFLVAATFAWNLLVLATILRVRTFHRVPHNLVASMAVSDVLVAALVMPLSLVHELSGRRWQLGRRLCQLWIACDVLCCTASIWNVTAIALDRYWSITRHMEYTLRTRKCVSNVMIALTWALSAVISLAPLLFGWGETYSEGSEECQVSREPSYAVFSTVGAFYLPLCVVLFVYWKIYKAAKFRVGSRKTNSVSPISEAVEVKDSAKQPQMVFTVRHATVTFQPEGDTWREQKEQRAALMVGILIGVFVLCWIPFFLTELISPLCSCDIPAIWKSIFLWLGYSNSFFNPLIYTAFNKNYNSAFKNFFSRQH
Mu-type opioid receptor, sequence (P35372 whole entry): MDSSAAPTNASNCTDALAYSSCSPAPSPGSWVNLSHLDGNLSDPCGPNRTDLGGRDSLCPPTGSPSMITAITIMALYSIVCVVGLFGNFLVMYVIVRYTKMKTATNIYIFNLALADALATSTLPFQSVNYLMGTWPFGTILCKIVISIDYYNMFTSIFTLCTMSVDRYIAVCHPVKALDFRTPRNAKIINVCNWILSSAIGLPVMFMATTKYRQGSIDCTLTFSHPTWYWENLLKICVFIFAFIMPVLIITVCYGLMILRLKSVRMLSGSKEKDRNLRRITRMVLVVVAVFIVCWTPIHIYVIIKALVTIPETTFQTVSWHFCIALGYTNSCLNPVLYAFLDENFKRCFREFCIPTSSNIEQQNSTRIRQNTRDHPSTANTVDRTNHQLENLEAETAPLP
Paired box protein Pax-8, sequence (Q06710 whole entry): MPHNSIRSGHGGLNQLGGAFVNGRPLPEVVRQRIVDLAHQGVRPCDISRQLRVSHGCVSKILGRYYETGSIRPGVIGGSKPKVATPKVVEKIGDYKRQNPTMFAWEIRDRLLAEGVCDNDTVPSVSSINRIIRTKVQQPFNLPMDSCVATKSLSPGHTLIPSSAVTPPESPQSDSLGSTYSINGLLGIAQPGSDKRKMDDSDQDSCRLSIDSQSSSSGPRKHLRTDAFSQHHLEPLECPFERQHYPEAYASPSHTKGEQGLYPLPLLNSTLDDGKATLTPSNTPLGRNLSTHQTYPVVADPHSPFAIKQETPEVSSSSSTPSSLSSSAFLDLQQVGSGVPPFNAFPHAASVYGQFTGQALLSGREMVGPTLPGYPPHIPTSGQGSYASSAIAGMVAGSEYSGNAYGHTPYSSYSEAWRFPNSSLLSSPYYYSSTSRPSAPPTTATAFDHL
Induced myeloid leukemia cell differentiation protein Mcl-1, sequence (Q07820 whole entry): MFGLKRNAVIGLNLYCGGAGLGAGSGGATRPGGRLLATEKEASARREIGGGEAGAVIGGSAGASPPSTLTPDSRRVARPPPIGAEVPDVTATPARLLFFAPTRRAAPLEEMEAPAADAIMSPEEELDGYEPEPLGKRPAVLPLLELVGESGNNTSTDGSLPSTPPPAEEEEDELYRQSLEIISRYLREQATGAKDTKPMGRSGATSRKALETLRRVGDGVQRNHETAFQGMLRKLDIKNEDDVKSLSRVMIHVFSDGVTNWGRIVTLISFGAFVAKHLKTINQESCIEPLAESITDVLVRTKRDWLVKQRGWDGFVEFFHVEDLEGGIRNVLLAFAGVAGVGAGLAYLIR

For `O=C(COC(=O)c1cccc(NS(=O)(=O)/C=C/c2ccccc2)c1)Nc1ccccc1OC(F)F`, the IC50 was 36 µM (inactive) in [1] and > 69.5 µM (inactive) in [2].

On to `Cc1nn(C)cc1CN1CCC(CO)(CCOc2ccccc2)CC1`, for which the IC50 against Prothrombin is > 50 µM (not active).

Turning to `Cc1csc(-c2cnn(-c3ccccc3)c2NC(=O)c2ccc(C(F)(F)F)cc2)n1`, the IC50 is 24.7 µM (inactive) in [1] and > 69.5 µM (inactive) in [2].

On to `Cc1ccc(C)c(S(=O)(=O)N(C(=O)c2ccncc2)c2ccc(OC(=O)c3ccncc3)cc2)c1`, for which the IC50 in the test on H9c2 was > 79 µM (inactive). Moreover, the half-maximal activity concentration (AC50) in test [3] is 4.05 µM (active); in [4], 1.9 µM (active); in test [5] it was > 52 µM (inactive).

Turning to `CC(C)Oc1ccc(N2CC(C(=O)NC3=NCCS3)CC2=O)cc1` (stereo not given), on Prothrombin, the IC50 is > 50 µM (not active).

For `COC(=O)c1sc(-c2ccc(Cl)cc2)cc1NC(=O)CSCC(=O)O`, the IC50 is 83.3 µM (inactive) in test [6], 18.2 µM (inactive) in test [7] and 22.5 µM (inactive) in [8].

For `Cc1cccc2cc(C(c3nnnn3Cc3ccccc3)N3CCN(C)CC3)c(O)nc12` (stereo not given), the EC50 was > 92.5 µM (inactive) in test [9], 1.88 µM (active) in test [10], > 92.5 µM (inactive) in test [11] and > 92.5 µM (inactive) on Mu-type opioid receptor.

With `O=c1cc(-c2ccsc2)oc2cc(-c3ccc4c(c3)OCO4)ccc12`, in test [12], the IC50 is 6.19 µM (active).

For `O=C(Nc1nc(-c2ccco2)c(-c2ccco2)s1)c1ccc(F)cc1F`, in test [13], the cytotoxic concentration (CC50) was > 40 µM (active).

As to `CCC(=O)C(CCN1CCOCC1)(c1ccccc1)c1ccccc1`, the EC50 in test [9] was > 92.5 µM (inactive); in test [10], 0.376 µM (active); in test [11], > 92.5 µM (inactive); on Mu-type opioid receptor, 12 µM (inactive).

`CCOC(=O)C1(Cc2ccccc2)CCN(Cc2cccn2-c2cccnc2)CC1`: the EC50 in [9] is > 92.5 µM (inactive); in [10], 0.841 µM (active); in test [11], > 92.5 µM (inactive); at Mu-type opioid receptor, > 92.5 µM (inactive).

`Cc1nn(C)cc1CNC(=O)C1C2CCC(C2)C1C(=O)O` (stereo not given): in test [13], the cytotoxic concentration (CC50) was > 40 µM (active).

Regarding `CCOC(=O)/C=C1\CN(Cc2ccc(OC)cc2)S(=O)(=O)c2ccccc21`, the IC50 in test [1] and in [2] was > 69.5 µM (inactive) throughout.

For `C[C@@H]1CN([C@H](C)CO)S(=O)(=O)c2ccc(C#CC3CCCC3)cc2O[C@H]1CN(C)Cc1cccnc1`, the figures for the concentration at half-maximal activity (AC50) (in [14]; at Paired box protein Pax-8; in [15]) were 26.2 µM (active), 12.5 µM (active) and 50.2 µM (active), respectively.

`COc1ccccc1C(=O)Nc1ccc2c(c1)C(=O)N(C)[C@@H]1CC[C@@H](CC(=O)NCc3ccc(Cl)c(Cl)c3)O[C@H]1CO2`: the figures for the AC50 (in test [14]; at Paired box protein Pax-8; in test [15]) were 40.8 µM (active), 1.57 µM (active) and 55.9 µM (active), respectively.

In the case of `O=C(CN1CCN(c2nc(-c3ccccc3)cs2)CC1)Nc1ccc(Cl)c(Cl)c1`, the IC50 is 37.8 µM (inactive) in test [1] and > 69.6 µM (inactive) in [2].

For the compound `CC(C)c1ccc(S(=O)(=O)/N=C2/C=CC(=O)c3ccccc32)cc1`, in test [16], the IC50 is 3.28 µM (active). Further, the CC50 in test [13] is 18.2 µM (active).

Consider `COCc1cn([C@@H]2C[C@@H]3O[C@H](CO)CC[C@@H]3O[C@@H]2CCc2ccc(-c3ccc(OC)cc3)cc2)nn1`, for which the half-maximal activity concentration (AC50) in [17] is 0.782 µM (active); in test [18] it was 0.426 µM (active); in test [19], 37.4 µM (active); in test [20] it was 0.424 µM (active); in test [21] it was 0.571 µM (active).

As for `COc1cccc(C#Cc2ccc([C@H]3[C@@H](CO)N4C(=O)CN(C(=O)c5ccccc5)C[C@H]34)cc2)c1`, the AC50 in [17] was 0.791 µM (active); in [18], 0.398 µM (active); in test [19], 22.3 µM (active); in test [20], 1.03 µM (active); in test [21], 0.53 µM (active).
